11 compounds from article PMC10702053, “Design, synthesis, and characterization of novel system xC^− transport inhibitors: inhibition of microglial glutamate release and neurotoxicity” (Journal of Neuroinflammation, 2023) can be followed below.

“Also recorded” adds a separate entry of the source. Like-named read-outs stand apart in the source and are kept apart here.

Data set [1] addresses T1, SxC^− transporter (system xC^− cystine-glutamate antiporter) (Rattus norvegicus, UniProt A0A8I6AB70).
T1 construct: endogenous in cells
The data set can be described thus: Microglial glutamate release assay (LPS-activated primary microglia). In kind it is cell-based. On the procedure:
Primary cultures of rat microglia were established as described previously. Microglia were seeded at 375,000/cm^2 in 96-well plates with minimal essential medium with Earle’s salts (MEM) containing 10% fetal bovine serum (FBS). After an overnight plating, the cultures were washed twice with serum-free MEM, and then a third volume was applied containing test substances at the indicated concentrations; MEM contains 100 μM (Cys)2. Immediately thereafter, lipopolysaccharide (LPS) was added to some wells at 100 ng/ml. This concentration was selected for this particular lot of LPS as the concentration producing a slightly submaximal response (i.e., 2–5% below the maximum). After 18 h, 50 μl of medium was transferred from each well to a black, opaque-bottomed 96-well plate and combined with 50 μl of assay reagent from a Amplex® Red Glutamic Acid Assay kit (ThermoFisher). A standard curve was generated with a range of concentrations of L-glutamate (monosodium salt). The assay reagent contained 0.25 U/ml horseradish peroxidase, 0.08 U/ml L-glutamate oxidase, 0.5 U/ml L-glutamate/pyruvate transaminase, and 200 μM L-alanine. After 30 min, fluorescence was measured in a Molecular Devices SpectraMax 3 with excitation at 550 nm and emission at 590 nm; values were interpolated into the standard curve. The microglial medium was also assayed for nitric oxide using Griess reagent to confirm that none of the experimental compounds was a general inhibitor of microglial activation. We also considered whether any compound was toxic to microglia. The microglia remaining in the 96-well plates were combined with 3-(4,5-dimethylthiazol-2-yl)-2,5-diphenyl-2H-tetrazolium bromide (MTT) at a final concentration of 125 μg/ml (in MEM/FBS) and incubated for 30 min at 37 °C and 5.5% CO2. After removal of the medium, 100 μl of dimethyl sulfoxide (DMSO) was added to dissolve the formazan crystals, and absorbance at 540 nm was measured in the SpectraMax 3; the mean background obtained in wells containing DMSO alone was subtracted from each experimental value.
Data were analyzed in GraphPad Prism 9.5.1. Nonlinear regression was performed on the glutamate release assay data to derive IC50 values and the graphed plot lines. ANOVA indicated post hoc tests were applied to dosimetric data; P < 0.05 was considered significant.
Fig. 2 Microglial Glu release assay. Rat primary microglia were activated with 100 ng/ml LPS alone or immediately following application of the indicated concentrations of test substances. After 18 h in the presence of LPS, an aliquot of medium was assayed for Glu via a […]. A First generation of compounds was created by simply varying the position of a methyl group around an aromatic ring, comparing activity to 3,5-DBT. B Additional modifications were evaluated, including several that simply extend the size of the structure hypothesized to fit into the hydrophobic pocket of the SxC^− transporter. Values are represented relative to the Glu detected in cultures treated with LPS alone; each data point represents a mean of 4 cultures. Nonlinear regression was performed to provide the plot lines

A short description of data set [2]: Solubility in aqueous media (observation). In kind it is physicochemical.
A short description of data set [3]: Light sensitivity (observation). In kind it is physicochemical.
Data set [4] concerns the target T1, SxC^− transporter (system xC^− cystine-glutamate antiporter). The data set can be described thus: Cystine uptake assay (selenocystine) in LPS-activated primary microglia. In kind it is cell-based. As to conditions: LPS 100 ng/ml 15 h, selenocystine uptake 30 min, 0.03-300 μM. Here is the method:
Cystine uptake was measured essentially as per Shimomura et al. using the Cystine Uptake Assay Kit (DOJINDO). Primary microglia were seeded as per glutamate release assays, and some cultures were treated the following day with 100 ng/ml LPS. After 15 h, the cultures were washed twice with Hank’s balanced salt solution (HBSS) and then incubated 5 min at 37 °C in HBSS containing fresh LPS and test substances at the indicated concentrations. The cultures were then exposed to HBSS containing selenocystine (DOJINDO) for 30 min at 37 °C, after which they were washed three times with ice-cold phosphate-buffered saline and then fixed in 50 μl methanol. A detection buffer comprising fluorescein O,O’-diacrylate and reducing agent (DOJINDO) was then added, and the plate was sealed and incubated for 30 min at 37 °C. Reaction product was then assayed in the Molecular Devices SpectraMax 3 with excitation at 490 nm and emission at 535 nm. Blanks consisted of wells containing only cells that had been washed, fixed with methanol, and incubated with the detection buffer, and the values from these wells were subtracted from the experimental values.
Fig. 5 35DPTA7 and 35DPTSA12 inhibit cystine uptake in microglia. Rat primary microglia were activated with 100 ng/ml LPS alone for 15 h, then the indicated concentrations of test substances were applied during application of selenocystine. […]

The test system of a further data set is primary cortical neurons. Nature of the data set: Neurotoxicity assay: microglia transwell / cortical neuron coculture, MTT. It counts as cell-based, rat. As to conditions: microglia treated with compound + LPS 100 ng/ml, 1 h, then 18 h with cortical neurons. On the procedure:
Primary cultures of rat cortical neurons were established as described previously; incorporation of both a serum-free medium and an intermittent treatment with cytosine arabinoside results in cultures that are among the purest neuronal primary cultures available. The cultures were seeded in 24-well plates, and 8 days later primary microglia were plated in transwell inserts (12-mm diameter) at 375,000/cm^2, washed to serum-free MEM, and treated with test substances followed immediately by LPS (100 ng/ml). After 1 h, the inserts were placed into the wells of the neuronal cultures. After an additional 18 h, the inserts were removed, and neuronal survival was evaluated by MTT assay as described above. Values are represented relative to the MTT signal produced in cultures exposed to untreated microglia.
Fig. 6 35DPTA7 and 35DPTSA12 reduced the neurotoxicity of activated microglia. Primary microglia were plated on permeable membranes in basket-type cell-culture inserts. Some cultures were treated with the indicated concentrations of 35DBTA7 or 35DBTSA12, followed immediately by application of LPS (100 ng/ml); some cultures were untreated and some received LPS alone. After 1 h, the inserts were placed into wells containing primary cortical neurons. After an additional 18 h, neuronal survival was determined by MTT assay. […]

Where [5] appears, read: rat primary microglia, LPS 100 ng/ml, 18 h.
Setting [6] is: rat primary microglia, LPS 100 ng/ml, 18 h, nonlinear regression in GraphPad Prism, read-out: IC50 ± SEM, inhibition of microglial Glu release.

T1 sequence (A0A8I6AB70 1-502): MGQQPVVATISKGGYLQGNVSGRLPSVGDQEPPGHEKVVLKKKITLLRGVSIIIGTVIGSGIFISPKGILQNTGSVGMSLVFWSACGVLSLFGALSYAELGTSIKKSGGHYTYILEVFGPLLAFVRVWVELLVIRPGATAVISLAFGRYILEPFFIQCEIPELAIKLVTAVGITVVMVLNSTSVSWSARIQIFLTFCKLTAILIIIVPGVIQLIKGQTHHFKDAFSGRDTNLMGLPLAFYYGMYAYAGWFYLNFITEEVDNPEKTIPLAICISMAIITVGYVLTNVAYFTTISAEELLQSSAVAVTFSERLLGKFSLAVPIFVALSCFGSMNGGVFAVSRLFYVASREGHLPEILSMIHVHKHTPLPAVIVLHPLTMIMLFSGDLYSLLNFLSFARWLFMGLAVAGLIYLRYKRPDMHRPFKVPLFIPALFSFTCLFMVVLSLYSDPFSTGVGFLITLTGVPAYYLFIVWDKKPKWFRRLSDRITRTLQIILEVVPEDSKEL
T1 sequence (Q794F9 whole entry partner): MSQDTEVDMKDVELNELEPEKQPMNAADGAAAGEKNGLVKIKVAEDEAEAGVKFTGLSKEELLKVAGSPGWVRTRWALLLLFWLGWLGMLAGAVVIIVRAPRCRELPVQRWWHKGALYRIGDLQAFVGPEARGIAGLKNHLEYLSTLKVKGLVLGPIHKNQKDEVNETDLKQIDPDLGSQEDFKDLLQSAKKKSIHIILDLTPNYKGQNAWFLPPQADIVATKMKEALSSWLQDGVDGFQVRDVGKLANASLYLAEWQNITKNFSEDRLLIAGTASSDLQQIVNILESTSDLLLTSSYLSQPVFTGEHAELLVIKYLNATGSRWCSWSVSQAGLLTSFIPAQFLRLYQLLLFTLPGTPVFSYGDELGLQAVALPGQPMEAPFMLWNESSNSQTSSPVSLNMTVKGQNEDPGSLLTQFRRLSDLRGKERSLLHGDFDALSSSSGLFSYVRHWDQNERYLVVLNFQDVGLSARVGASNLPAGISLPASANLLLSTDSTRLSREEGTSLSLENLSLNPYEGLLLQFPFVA

Take `N[C@@H](Cc1nc(I)[nH]c1I)C(=O)O` [2,5-DIH, 2,5-diiodohistidine]: in data set [1] (setting [5]), the “Inhibition of SxC^− / microglial Glu release (in words)” value is “completely inactive”.
Broadly, the IC50 is the point on the concentration scale where inhibition reaches its midpoint. As for `N[C@@H](Cc1cc(Br)c(O)c(Br)c1)C(=O)O` [3,5-DBT, 3,5-dibromotyrosine], half-maximal inhibition in data set [1] (IC50) was put at 3490 ± 779 nM. Also, the “Inhibition of SxC^− / microglial Glu release (in words)” value in data set [1] (setting [5]) was “potent inhibition”. Further, in data set [2], the “Solubility in water / aqueous solutions (in words)” value is recorded as “high solubility in water as a salt”.
As for `N[C@@H](Cc1cc(I)c(O)c(I)c1)C(=O)O` [3,5-DIT], the Light sensitivity result in data set [3] is given as “exceedingly light sensitive”. Moreover, the IC50 in data set [1] (setting [6]) is 665 ± 126 nM.
As for `Cc1ccccc1C(=O)N[C@@H](Cc1cc(Br)c(O)c(Br)c1)C(=O)O` [35DBTA1], the IC50 in data set [1] (setting [6]) came to 1030 ± 440 nM.
On to `Cc1cccc(C(=O)N[C@@H](Cc2cc(Br)c(O)c(Br)c2)C(=O)O)c1` [35DBTA2], for which the IC50 in data set [1] (setting [6]) came to 5790 ± 3960 nM.
As to `Cc1ccc(C(=O)N[C@@H](Cc2cc(Br)c(O)c(Br)c2)C(=O)O)cc1` [35DBTA3], the “Inhibition of SxC^− / microglial Glu release (in words)” value in data set [1] (setting [5]) is “greatest potency”. Moreover, in data set [1] (setting [6]), the IC50 is 159 ± 24.4 nM.
Turning to `CCC(=O)N[C@@H](Cc1cc(Br)c(O)c(Br)c1)C(=O)O` [35DBTA5], the IC50 in data set [1] (setting [6]) came out at 25500 ± 4590 nM.
Turning to `O=C(O)[C@H](Cc1cc(Br)c(O)c(Br)c1)NC(=O)C(F)(F)F` [35DBTA6], in data set [1] (setting [5]), the “Inhibition of SxC^− / microglial Glu release (in words)” value is “trend toward inhibitory properties at low concentrations but produced a reversal of that trend above 3 μM”.
As for `O=C(N[C@@H](Cc1cc(Br)c(O)c(Br)c1)C(=O)O)c1ccc(-c2ccccc2)cc1` [35DBTA7], the “Inhibition of cystine uptake into microglia (in words)” value in data set [4] was “dose-dependent inhibition”. In addition, in data set [1] (setting [5]), the “Inhibition of SxC^− / microglial Glu release (in words)” value is reported as “quite effective”. Also, the IC50 in data set [1] (setting [6]) is 1620 ± 377 nM. Besides, the “Neuronal survival (MTT) in presence of LPS-activated microglia (in words)” value in the data set on primary cortical neurons was “elevated the survival signal; also recorded: quite effective”.
With `O=C(N[C@@H](Cc1cc(Br)c(O)c(Br)c1)C(=O)O)c1ccc(-c2ccc(-c3ccccc3)cc2)cc1` [35DBTA8], the “Inhibition of SxC^− / microglial Glu release (in words)” value in data set [1] (setting [5]) is recorded as “quite effective”. The IC50 in data set [1] (setting [6]) came out at 172 ± 5.6 nM. Also, the “Solubility in water / aqueous solutions (in words)” value in data set [2] is given as “poorly soluble”. Also, in data set [2] (disodium salt), the “Solubility of the disodium salt (carboxylate and phenoxide) in aqueous media” value was “poorly soluble”.
As for `N[C@@H](Cc1ccc(O)cc1)C(=O)O` [Tyr, L-tyrosine, reference compound], the “Inhibition of SxC^− / microglial Glu release (in words)” value in data set [1] (setting [5]) was “does not possess any inhibitory properties”.
